# Test results: paper PMC11620503 (Antimicrobial Agents and Chemotherapy, 2024)
# Legend:
# [1] = test system: Prevotella melaninogenica KUB3005; assay: MIC, agar dilution, reference strains of anaerobic bacteria; assay type: cell-based
# [2] = test system: Finegoldia magna ATCC 29328; assay: as above; assay type: cell-based; conditions: ATCC29328
# [3] = test system: Bacteroides fragilis KUB2983; assay: as above; assay type: cell-based
# [4] = test system: Parvimonas micra KUB3000; assay: as above; assay type: cell-based
# [5] = test system: Clostridioides difficile ATCC 700057; assay: as above; assay type: cell-based; conditions: ATCC700057
# [6] = test system: Bacteroides fragilis ATCC 25285; assay: as above; assay type: cell-based; conditions: ATCC25285
# [7] = test system: Bacteroides thetaiotaomicron KUB2984; assay: as above; assay type: cell-based
# [8] = test system: Bacteroides fragilis KUB2982; assay: as above; assay type: cell-based
# [9] = test system: Peptoniphilus asaccharolyticus ATCC 14963; assay: as above; assay type: cell-based; conditions: ATCC14963
# [10] = test system: Bulleidia extructa KUB3013; assay: as above; assay type: cell-based
# [11] = test system: Propionibacterium acnes ATCC 11827; assay: as above; assay type: cell-based; conditions: Cutibacterium acnes, ATCC11827
# [12] = test system: Bacteroides thetaiotaomicron ATCC 29741; assay: as above; assay type: cell-based; conditions: ATCC29741
# [13] = test system: Bacteroides ovatus KUB3009; assay: as above; assay type: cell-based
# [14] = test system: Actinomyces odontolyticus ATCC 17929; assay: as above; assay type: cell-based; conditions: Schaalia odontolytica, ATCC17929
# [15] = test system: Atopobium rimae KUB3014; assay: as above; assay type: cell-based; conditions: Lancefieldella rimae
# [16] = test system: Clostridioides difficile ATCC 43255; assay: as above; assay type: cell-based; conditions: ATCC43255
# [17] = test system: Fusobacterium varium ATCC 27725; assay: as above; assay type: cell-based; conditions: ATCC27725
# [18] = test system: Eggerthella lenta ATCC 43055; assay: as above; assay type: cell-based; conditions: ATCC43055
# [19] = test system: Prevotella intermedia KUB2991; assay: as above; assay type: cell-based
# [20] = test system: Clostridioides difficile ATCC BAA-1870; assay: as above; assay type: cell-based; conditions: ATCCBAA1870
# [21] = test system: Prevotella histicola KUB2989; assay: as above; assay type: cell-based
# [22] = test system: Peptostreptococcus anaerobius ATCC 27337; assay: as above; assay type: cell-based; conditions: ATCC27337
# [23] = test system: Fusobacterium nucleatum ATCC 25586; assay: as above; assay type: cell-based; conditions: ATCC25586
# [24] = test system: Prevotella buccae KUB2992; assay: as above; assay type: cell-based; conditions: Segatella buccae
# [25] = test system: Clostridioides difficile ATCC BAA-1803; assay: as above; assay type: cell-based; conditions: ATCCBAA1803
# [26] = test system: Olsenella uli KUB3012; assay: as above; assay type: cell-based
# [27] = test system: Clostridium perfringens ATCC 13124; assay: microbe, parasite or virus in culture; assay type: cell-based; conditions: ATCC13124
# [28] = in humans; cited from earlier work
# [29] = molecular target: CTX-M-15 (Escherichia coli, UniProt Q9EXV5); assay: Ki app determination (Waley's method); conditions: read-out: Ki app; CTX-M-15; means from three independent studies
# [30] = molecular target: KPC-3 (Klebsiella pneumoniae, UniProt Q9F663, H272Y); assay: Ki app determination (Waley's method); conditions: read-out: Ki app; KPC-3; means from three independent studies
# [31] = molecular target: ACT-17 (Enterobacter cloacae complex, UniProt Q8KP20); assay: Ki app determination (Waley's method); conditions: read-out: Ki app, means from three independent studies
# [32] = molecular target: IMP-6 (Serratia marcescens, UniProt P52699, S214G); assay: Ki app determination (Waley's method); conditions: read-out: Ki app; IMP-6; means from three independent studies
# [33] = molecular target: OXA-48 (Klebsiella pneumoniae, UniProt Q6XEC0); assay: Ki app determination (Waley's method); conditions: read-out: Ki app; OXA-48; means from three independent studies
# [34] = molecular target: OXA-66 (Acinetobacter baumannii, UniProt Q58XD2); assay: Ki app determination (Waley's method); conditions: read-out: Ki app; OXA-66; means from three independent studies
# [35] = molecular target: CTX-M-14 (Escherichia coli, UniProt Q9L5C7); assay: Ki app determination (Waley's method); conditions: read-out: Ki app; CTX-M-14; means from three independent studies
# [36] = molecular target: OXA-72 (Acinetobacter baumannii, UniProt Q5XQU0); assay: Ki app determination (Waley's method); conditions: read-out: Ki app; OXA-72; means from three independent studies
# [37] = molecular target: CTX-M-27 (Escherichia coli, UniProt Q840M4); assay: Ki app determination (Waley's method); conditions: read-out: Ki app; CTX-M-27; means from three independent studies
# [38] = molecular target: SHV-12 (Klebsiella pneumoniae, UniProt P0A3M1, L31Q); assay: Ki app determination (Waley's method); conditions: read-out: Ki app; SHV-12; means from three independent studies
# [39] = molecular target: VIM-2 (Escherichia coli, UniProt Q5U7L7); assay: Ki app determination (Waley's method); conditions: read-out: Ki app; VIM-2; means from three independent studies
# [40] = molecular target: KPC-2 (Klebsiella pneumoniae, UniProt Q9F663); assay: Ki app determination (Waley's method); conditions: read-out: Ki app; KPC-2; means from three independent studies
# [41] = molecular target: OXA-65 (Acinetobacter baumannii, UniProt Q58XD3); assay: Ki app determination (Waley's method); conditions: read-out: Ki app; OXA-65; means from three independent studies
# [42] = molecular target: SHV-5 (Klebsiella pneumoniae, UniProt P0A3M1); assay: Ki app determination (Waley's method); conditions: read-out: Ki app; SHV-5; means from three independent studies
# [43] = molecular target: PDC-11 (Pseudomonas aeruginosa, UniProt P24735, form not given, species not given); assay: Ki app determination (Waley's method); conditions: read-out: Ki app, means from three independent studies
# [44] = molecular target: OXA-23 (Acinetobacter baumannii, UniProt Q9L4P2); assay: Ki app determination (Waley's method); conditions: read-out: Ki app; OXA-23; means from three independent studies
# [45] = molecular target: KPC-38 (Klebsiella pneumoniae, UniProt Q9F663); assay: Ki app determination (Waley's method); conditions: read-out: Ki app, means from three independent studies
# [46] = molecular target: SHV-2 (Klebsiella pneumoniae, UniProt P0A9Z8); assay: Ki app determination (Waley's method); conditions: read-out: Ki app; SHV-2; means from three independent studies
# [47] = molecular target: IMP-1 (Serratia marcescens, UniProt P52699); assay: Ki app determination (Waley's method); conditions: read-out: Ki app; IMP-1; means from three independent studies
# [48] = molecular target: OXA-24 (Acinetobacter baumannii, UniProt Q8RLA6); assay: Ki app determination (Waley's method); conditions: read-out: Ki app; OXA-24; means from three independent studies
# [49] = molecular target: VIM-1 (Pseudomonas aeruginosa, UniProt A0A0F7KYQ8); assay: Ki app determination (Waley's method); conditions: read-out: Ki app; VIM-1; means from three independent studies
# [50] = test system: MBL-producing isolates (Enterobacterales); assay: MIC, broth microdilution; assay type: cell-based; conditions: Enterobacterales with metallo-carbapenemases (47), CDC AR Bank, fixed concentration (μg/mL) in label
# [51] = test system: Acinetobacter baumannii (46); assay: MIC, broth microdilution; assay type: cell-based
# [52] = test system: E. coli CDC-162 (NDM-7), PBP3 mutations; assay: MIC, broth microdilution; assay type: cell-based; conditions: Escherichia coli
# [53] = test system: E. coli CDC-137 (NDM-6), PBP3 mutations; assay: MIC, broth microdilution; assay type: cell-based; conditions: Escherichia coli, fixed BLI concentration (μg/mL) in parentheses in label
# [54] = test system: E. coli CDC-119 (NDM-1), PBP3 mutations; assay: MIC, broth microdilution; assay type: cell-based; conditions: Escherichia coli
# [55] = test system: Cefepime/taniborbactam-nonsusceptible Enterobacterales with metallo-carbapenemases (25); assay: MIC, broth microdilution; assay type: cell-based; conditions: CDC AR Bank, fixed concentration (μg/mL) in label
# [56] = test system: E. coli CDC-150 (NDM-5), PBP3 mutations; assay: MIC, broth microdilution; assay type: cell-based; conditions: Escherichia coli, fixed BLI concentration (μg/mL) in parentheses in label
# [57] = test system: MEM-nonsusceptible Enterobacterales with metallo-carbapenemases; assay: MIC, broth microdilution; assay type: cell-based; conditions: MEM-nonsusceptible Enterobacterales with metallo-carbapenemases (41), CDC AR Bank, fixed concentration (μg/mL) in label
# [58] = test system: E. coli CDC-435 (NDM-1), PBP3 mutations; assay: MIC, broth microdilution; assay type: cell-based; conditions: Escherichia coli, fixed BLI concentration (μg/mL) in parentheses in label
# [59] = test system: E. coli CDC-149 (NDM-7), PBP3 mutations; assay: MIC, broth microdilution; assay type: cell-based; conditions: Escherichia coli
# [60] = test system: E. coli CDC-151 (NDM-5), PBP3 mutations; assay: MIC, broth microdilution; assay type: cell-based; conditions: Escherichia coli, fixed BLI concentration (μg/mL) in parentheses in label
# [61] = CLSI breakpoints, marked c: breakpoints for β-lactam alone
# [62] = fixed concentration (μg/mL) in label
compound,measurement,setting,value
"Cc1ncc([N+](=O)[O-])n1CCO [Metronidazole, metronidazole]",MIC,[1],1 mg/L
same,MIC,[2],2 mg/L
same,MIC,[3],0.5 mg/L
same,MIC,[4],0.5 mg/L
same,MIC,[5],0.5 mg/L
same,MIC,[6],1 mg/L
same,MIC,[7],1 mg/L
same,MIC,[8],2 mg/L
same,MIC,[9],1 mg/L
same,MIC,[10],2 mg/L
same,MIC,[11],> 64 mg/L
same,MIC,[12],2 mg/L
same,MIC,[13],1 mg/L
same,MIC,[14],> 64 mg/L
same,MIC,[15],1 mg/L
same,MIC,[16],1 mg/L
same,MIC,[17],0.5 mg/L
same,MIC,[18],1 mg/L
same,MIC,[19],1 mg/L
same,MIC,[20],1 mg/L
same,MIC,[21],2 mg/L
same,MIC,[22],0.5 mg/L
same,MIC,[23],≤ 0.125 mg/L
same,MIC,[24],2 mg/L
same,MIC,[25],2 mg/L
same,MIC,[26],4 mg/L
same,MIC,[27],2 mg/L
O=C(O)c1c(F)ccc2c1OB(O)[C@@H]1C[C@H]21 [xeruborbactam],protein binding rate,[28],over 90%
"NCCN[C@H]1CC[C@H](CC(=O)N[C@H]2Cc3cccc(C(=O)O)c3OB2O)CC1 [Tanibobactam, taniborbactam]",Ki,[29],0.0245 ± 0.0103 nM
same,Ki,[30],0.947 ± 0.259 nM
same,Ki,[31],12.6 ± 1.55 nM
same,Ki,[32],> 100000 nM
same,Ki,[33],204 ± 31 nM
same,Ki,[34],61700 nM
same,Ki,[35],0.0607 ± 0.0257 nM
same,Ki,[36],25200 nM
same,Ki,[37],0.0344 ± 0.013 nM
same,Ki,[38],4.73 ± 0.182 nM
same,Ki,[39],322 ± 50 nM
same,Ki,[40],1.1 ± 0.229 nM
same,Ki,[41],> 100000 nM
same,Ki,[42],5.9 ± 1.8 nM
same,Ki,[43],34.6 ± 2.2 nM
same,Ki,[44],> 100000 nM
same,Ki,[45],0.617 ± 0.0841 nM
same,Ki,[46],20 ± 2.39 nM
same,Ki,[47],> 100000 nM
same,Ki,[48],2080 nM
same,Ki,[49],271 ± 46.7 nM
"CO/N=C(\C(=O)N[C@@H]1C(=O)N2C(C(=O)[O-])=C(C[N+]3(C)CCCC3)CS[C@H]12)c1csc(N)n1 [FEP, cefepime]",MIC50,[50]; read-out: MIC50,> 64 mg/L
same,MIC90,[50]; read-out: MIC90,> 64 mg/L
same,CLSI MIC interpretation I (intermediate),[51]; [61],4.3%
same,CLSI MIC interpretation R (resistant),[51]; [61],95.7%
same,CLSI MIC interpretation S (susceptible),[51]; [61],0%
same,MIC50,[51]; [62],64 mg/L
same,MIC90,[51]; [62],> 256 mg/L
same,MIC,[52],> 64 mg/L
same,MIC,[53],> 64 mg/L
same,MIC,[54],> 64 mg/L
same,MIC50,[55],> 64 mg/L
same,MIC90,[55],> 64 mg/L
same,MIC,[56],> 64 mg/L
same,MIC50,[57]; read-out: MIC50,> 64 mg/L
same,MIC90,[57]; read-out: MIC90,> 64 mg/L
same,MIC,[58],> 64 mg/L
same,MIC,[59],> 64 mg/L
same,MIC,[60],> 64 mg/L
